Where two headings read alike, the source gives them in different places.
Experiments:
Type in all cases: cell-based, mouse
HT22 cells = test: In vitro neuroprotective activity against glutamate-induced cell death (MTS cell viability); conditions: HT22 cells; for EC50: 24 hrs, MTS, concentration producing 50% protection, read-out: Protection PC50
Description: The HT22 neuronal cell line is a subclone of HT4, derived from the mouse hippocampus (Morimoto and Koshland, 1990). […] HT22 cells were used. The cells were grown in Dulbecco's Modified Eagle's medium (DMEM/high glucose) supplemented with 10% fetal bovine serum (Hyclone) and 5 mL Antibiotic-Antimycotic (Amphotericin B, Penicillin, and Streptomycin; Invitrogen) at 37° C. in 5% CO2.
Cell viability was assessed by the ability of the viable cells to metabolize 3-(4,5-dimethylthiazol-2-yl)-5-(3-carboxymethoxyphenyl)-2(4-sulfophenyl)2-H-tetrazolium, inner salt (MTS), as described previously (Cory et al., 1991). The metabolism of tetrazolium salts is often used to measure cellular proliferation, but in the system used here, it has been previously shown to correlate well with cell viability as determined by trypan blue exclusion and colony-forming assays (Davis and Maher, 1994). Briefly, HT-22 cells were seeded onto 96-well plates at 5.0×10^3 cells per well in 75 μL of medium and maintained at 37° C. in 5% CO2 overnight prior to the initiation of experimental treatments. For glutamate toxicity testing, cells were subsequently treated with 25 μL of medium containing glutamate (monosodium glutamate, Sigma, 1 M stock concentration in media, to achieve a final concentration of 10 mM) plus inhibitors (stock in DMSO) and maintained at 37° C. in 5% CO2. For t-BuOOH toxicity testing, cells were subsequently treated with 25 μL of medium containing t-BuOOH (Sigma, 10 mM stock concentration, to achieve a final concentration of 50 μM) plus inhibitors (stock in DMSO) and maintained at 37° C. in 5% CO2 for 3 hours, after which the media was removed, cells washed gently with HBSS, the media replaced with standard culture media, and the cells returned to incubation at 37° C. in 5% CO2. For both glutamate and t-BuOOH treatments, 10 μl of MTS solution was added to each well 24 hrs after initial treatment, and the cells were maintained in growth medium for 2 h at 37° C. Absorbance at 490 nm was subsequently measured by a SpectraMax 190 plate reader (Molecular Devices). The growth medium without cells in the presence of MTS solution was used as solution background and untreated cells were considered the controls. Cell viability was calculated as a percentage compared with untreated controls. EC50 determinations were based on 12-point titrations using GraphPad Prism, and each experiment was repeated at least four times. Morphology of HT22 cells following treatments was determined by phase-contrast microscopy. Digital images of cells grown on cell culture plates were captured at 10× magnification.
The neuroprotective properties of VK and its derivatives were estimated through their protective effects against cell death in mouse neuronal HT22 cells induced by exposure to high levels of glutamate, which recapitulates a hallmark of the extracellular environment found in several neurodegenerative diseases and CNS injuries and is a well established model of neuronal oxidative stress. This investigation began by comparing the relative abilities of the two predominant naturally occurring forms of VK, VK1 and VK2, to prevent oxidative cell death. […] Several 1,4-naphthoquinones with various substitutions at the 2′ and 3′ positions were tested to determine the minimum structural requirement of the system and what the optimum scaffold for future developmental efforts and biological validation would be (FIG. 1B and Table 1). […] Substitution by a single methyl group at the 2′ position (VK3) improves the compound's ability to protect against cell death. Various other simple substituents at the 2′ and 3′ positions give the naphthoquinone structure the ability to prevent oxidative cell death at nanomolar concentrations (Table 1 and FIG. 16).

Drp1 = test: Western blot, phosphorylation of Drp1 (Ser637); conditions: HT22, 10 mM glutamate 16 hrs
Description: HT-22 cells were cultured and treated as described above for the qRT-PCR experiments. After 16 hrs, the media was collected and the cells harvested by trypsanization. After centrifugation, pelleted cells were washed with cold HBSS Ca^2+/Mg^2+ Free, followed by lysis with a low salt lysis buffer (50 mM Tris-HCl, pH 7.4, 150 mM NaCl, 10% glycerol, 0.5 Triton X-100, 1× protease and phosphatase inhibitor cocktail) for 30 min, followed by a 15-s sonication pulse at 30 W. For Western blot analysis, the cell lysates were denatured with LDS loading buffer (Invitrogen) and run on Nupage 4-12% Tris-glysine gradient gels (Invitrogen) after centrifugation. Phosphorylated Drp1 (Ser637) (Cell Signaling) and total Drp1 (C5) (Santa Cruz), PGAM5 (K16) (Santa Cruz Biotechnology), Actin (Sigma-Aldritch) and alpha-Tubulin (Santa Cruz Biotechnology) were assessed with primary antibody, followed by rabbit, mouse, or goat IgG-HRP secondary antibody. The blot was developed using Pierce Thermo Dura-ECL reagent (Thermo-Fisher) and visualized using an ImageQuant LAS 4000 (GE). Digital images of membranes were quantified by computer-assisted densitometry using Image J 1.42q (National Institutes of Health, MD).

HT-22 neuronal cells = test: Respirometry (OCR, ECAR; Seahorse XF-96); set-up: ECAR (glycolysis), difference from control: unit not given here; conditions: HT-22 cells, mean±SEM; for basal cellular respiration, difference in OCR from control: 1 h treatment, OCR as percentage of pre-treatment value; for basal mitochondrial respiration, difference from control: basal minus non-mitochondrial (rotenone); for ATP-linked respiration, difference from control: basal minus oligomycin
Description: Oxygen consumption rates (OCR) and extracellular acidification rates (ECAR) of HT-22 neuronal cells were performed on the XF-96 Extracellular Flux Analyzer (Seahorse Bioscience) using standard methods (Beeson et al., 2010). In brief, cells were cultured in 96 well Seahorse plates in DMEM high glucose media (Invitrogen) supplemented with 10% FBS, 10 mM HEPES, and 1% antibiotic-antimycotic (Invitrogen). The media was replaced with DMEM media supplemented with 25 mM glucose, 10 mM sodium pyruvate, 31 mM NaCl, and 2 mM glutamine at pH 7.4. Each of the four drug ports on the Seahorse sensor cartridge were filled with test compound (media only, 5 μM NQN-1, 10 μM VK3 or 12.5 μM MB), 10 μM oligomycin, 1 μM FCCP, and 5 μM rotenone, which were injected into each well at 20, 80, 110, and 135 min, respectively. The pmol/min OCR rate for each well (9-52 wells/group) was measured. Wells were excluded from the analysis if their OCR values surpassed the Tukey Outlier Rule. In order to standardize the OCR rates across wells, the average OCR value at 17 min (last time point prior to injection of the test compounds) for each experimental group was calculated, and set to 100. All OCR values are given as a percentage of this pre-treatment value. […]

[1] = Mus musculus, HT-22, 10 mM glutamate

C#CCNC1=CC(=O)c2ccccc2C1=O [Compound 2h, 2-(prop-2-yn-1-ylamino)naphthalene-1,4-dione]
EC50 (HT22 cells; [1]): 120 nM

O=C1C=C(NCc2ccccc2)C(=O)c2ccccc21 [Compound 2j, 2-(benzylamino)naphthalene-1,4-dione]
EC50 (HT22 cells; [1]): 88 nM
phosphorylation of Drp1 at Ser 637 (Drp1; 250 and 125 nM): the phosphorylation state is maintained
basal cellular respiration, difference in OCR from control (HT-22 neuronal cells): −4.14±2.9
basal mitochondrial respiration, difference from control (HT-22 neuronal cells): 9.09±3.13
ATP-linked respiration, difference from control (HT-22 neuronal cells): 6.58±3.28
ECAR (glycolysis), difference from control (HT-22 neuronal cells): 5.03±1.11

O=C1C=C(NCc2cccc(Cl)c2)C(=O)c2ccccc21 [Compound 2q, 2-((3-chlorobenzyl)amino)naphthalene-1,4-dione]
fold increase in PC50 potency over VK2 (HT22 cells; 10 mM glutamate): more than 10 fold
fold increase in PC50 potency over compound 2j (HT22 cells; 10 mM glutamate): ~3 fold
EC50 (HT22 cells; [1]): 31 nM
phosphorylation of Drp1 at Ser 637 (Drp1; 250 and 125 nM): the phosphorylation state is maintained

CC1=CC(=O)c2ccccc2C1=O [VK3, menadione, reference compound]
EC50 (HT22 cells; 10 mM glutamate): 797 nM
basal cellular respiration, difference in OCR from control (HT-22 neuronal cells): 21.57±0.97
basal mitochondrial respiration, difference from control (HT-22 neuronal cells): elevated but failed to reach statistical significance
ATP-linked respiration, difference from control (HT-22 neuronal cells): 12.2±3.12
ECAR (glycolysis), difference from control (HT-22 neuronal cells): 1.89±0.93

menaquinones [VK2, reference compound]
EC50 (HT22 cells; 10 mM glutamate): 432 nM
protection from oxidative cell death (HT22 cells; glutamate): rescued HT22 cells from oxidative cell death
phosphorylation of Drp1 at Ser 637 (Drp1; 250 nM): less effective
phosphorylation of Drp1 at Ser 637 (Drp1; 500 nM): the phosphorylation state is maintained
